Data taken from patent US20150105252A1, “SUBSTITUTED PYRAZOLES AS HERBICIDES” (E I DU PONT DE NEMOURS AND COMPANY, priority 2013, published 2015).

Legend:
barnyardgrass [1] = experiment: Test A preemergence; type: in vivo, Echinochloa crus-galli; conditions: preemergence
Procedure, shortened: (§1)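 Visual injury rating, 0–100 (0 no effect, 100 complete control), vs untreated controls ~10 days after treatment in greenhouse. Pre: directed soil spray on seeded loam/sand. Post: 2–10 cm plants, 1–2 leaf stage. Formulation: non-phytotoxic solvent mix + surfactant.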

crabgrass, large [2] = experiment: Test A preemergence; type: in vivo, Digitaria sanguinalis; conditions: preemergence
Procedure, shortened: as §1

foxtail, giant [3] = experiment: Test A preemergence; type: in vivo, Setaria faberii; conditions: preemergence
Procedure, shortened: as §1

morningglory [4] = experiment: Test A preemergence; type: in vivo, Ipomoea spp.; conditions: preemergence
Procedure, shortened: as §1

pigweed [5] = experiment: Test A preemergence; type: in vivo, Amaranthus retroflexus; conditions: preemergence
Procedure, shortened: as §1

velvetleaf [6] = experiment: Test A preemergence; type: in vivo, Abutilon theophrasti; conditions: preemergence
Procedure, shortened: as §1

wheat [7] = experiment: Test A preemergence; type: in vivo, Triticum aestivum; conditions: preemergence
Procedure, shortened: as §1

corn [8] = experiment: Test A preemergence; type: in vivo, Zea mays; conditions: preemergence
Procedure, shortened: as §1

barnyardgrass [9] = experiment: Test A postemergence; type: in vivo, Echinochloa crus-galli
Procedure, shortened: as §1

crabgrass, large [10] = experiment: Test A postemergence; type: in vivo, Digitaria sanguinalis
Procedure, shortened: as §1

foxtail, giant [11] = experiment: Test A postemergence; type: in vivo, Setaria faberii
Procedure, shortened: as §1

morningglory [12] = experiment: Test A postemergence; type: in vivo, Ipomoea spp.
Procedure, shortened: as §1

pigweed [13] = experiment: Test A postemergence; type: in vivo, Amaranthus retroflexus
Procedure, shortened: as §1

velvetleaf [14] = experiment: Test A postemergence; type: in vivo, Abutilon theophrasti
Procedure, shortened: as §1

wheat [15] = experiment: Test A postemergence; type: in vivo, Triticum aestivum
Procedure, shortened: as §1

corn [16] = experiment: Test A postemergence; type: in vivo, Zea mays
Procedure, shortened: as §1

rice = experiment: Test B flood; type: in vivo, Oryza sativa; conditions: 250 g ai/ha, visual rating on 0 to 100 scale (0 no effect, 100 complete control), 13 to 15 days
Procedure, shortened: (§2)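 Greenhouse assay lasting 13 to 15 days. Treatment was into water flooding pots 3 cm deep, at the 2-leaf stage, with that level sustained afterwards. Scores compare treated with control plants visually, 100 denoting complete control and 0 no effect; a dash marks no test result.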

sedge, umbrella = experiment: Test B flood; type: in vivo, Cyperus difformis; conditions: 250 g ai/ha, visual rating on 0 to 100 scale (0 no effect, 100 complete control), 13 to 15 days
Procedure, shortened: as §2

ducksalad = experiment: Test B flood; type: in vivo, Heteranthera limosa; conditions: 250 g ai/ha, visual rating on 0 to 100 scale (0 no effect, 100 complete control), 13 to 15 days
Procedure, shortened: as §2

barnyardgrass [17] = experiment: Test B flood; type: in vivo, Echinochloa crus-galli; conditions: 250 g ai/ha, visual rating on 0 to 100 scale (0 no effect, 100 complete control), 13 to 15 days
Procedure, shortened: as §2

[18] = 125 g ai/ha, visual injury approx. 10 days after treatment
[19] = 500 g ai/ha, visual injury after approx. 10 days, 0 to 100 scale (0 no effect, 100 complete control)
[20] = Postemergence, 125 g ai/ha, 0 to 100 scale, 0 no effect, 100 complete control
[21] = Postemergence, 500 g ai/ha, 0 to 100 scale (0 no effect, 100 complete control)
[22] = 125 g ai/ha, visual injury, 0 to 100 scale, approx. 10 days
[23] = Postemergence, 500 g ai/ha, visual rating after approx. 10 days, 0 to 100 scale (0 no effect, 100 complete control)
[24] = postemergence, 125 g ai/ha, about 10 days, visual rating on 0 to 100 scale (0 no effect, 100 complete control)

## CCc1cc(C(=O)NCC(F)(F)F)nn1Cc1cc(C(F)(F)C(F)(F)F)nn1C [Compound 227]
Barnyardgrass [1]; [18]
  Barnyardgrass plant response rating (0 to 100 scale, 0 is no effect, 100 is complete control): 40
Barnyardgrass [1]; [19]
  Barnyardgrass plant response rating: 100
crabgrass, large [2]; [18]
  Crabgrass, Large plant response rating (0 to 100 scale): 100
crabgrass, large [2]; [19]
  Crabgrass, Large plant response rating: 100
foxtail, giant [3]; [18]
  Foxtail, Giant plant response rating (0 to 100 scale): 70
foxtail, giant [3]; [19]
  Foxtail, Giant plant response rating: 100
Morningglory [4]; [18]
  Morningglory plant response rating (0 to 100 scale): 10
Pigweed [5]; [18]
  Pigweed plant response rating (0 to 100 scale): 90
Velvetleaf [6]; [18]
  Velvetleaf plant response rating (0 to 100 scale): 30
Wheat [7]; [18]
  Wheat plant response rating (0 to 100 scale): 10
Corn [8]; [18]
  Corn plant response rating (0 to 100 scale): 0
Corn [8]; [19]
  Corn plant response rating: 50
Barnyardgrass [9]; [20]
  Barnyardgrass plant response rating: 40
Barnyardgrass [9]; [21]
  Barnyardgrass plant response rating: 80
crabgrass, large [10]; [20]
  Crabgrass, Large plant response rating: 60
crabgrass, large [10]; [21]
  Crabgrass, Large plant response rating: 90
foxtail, giant [11]; [20]
  Foxtail, Giant plant response rating: 70
foxtail, giant [11]; [21]
  Foxtail, Giant plant response rating: 90
Morningglory [12]; [20]
  Morningglory plant response rating: 70
Morningglory [12]; [21]
  Morningglory plant response rating: 100
Pigweed [13]; [20]
  Pigweed plant response rating: 100
Pigweed [13]; [21]
  Pigweed plant response rating: 100
Velvetleaf [14]; [20]
  Velvetleaf plant response rating: 40
Velvetleaf [14]; [21]
  Velvetleaf plant response rating: 100
Wheat [15]; [20]
  Wheat plant response rating: 20
Wheat [15]; [21]
  Wheat plant response rating: 70
Corn [16]; [20]
  Corn plant response rating: 30
Corn [16]; [21]
  Corn plant response rating: 70
rice
  Plant response rating, Rice: 0
sedge, umbrella
  Plant response rating, Sedge, Umbrella: 95
ducksalad
  Plant response rating, Ducksalad: 100
Barnyardgrass [17]
  Plant response rating, Barnyardgrass: 80

## CCc1cc(C(=O)NCC(F)(F)C(F)(F)F)nn1Cc1ccnc(C(F)(F)F)c1 [Compound 102]
Barnyardgrass [1]; [22]
  Barnyardgrass plant response rating: 20
Barnyardgrass [1]; [19]
  Barnyardgrass plant response rating: 90
crabgrass, large [2]; [22]
  Crabgrass, Large plant response rating: 60
crabgrass, large [2]; [19]
  Crabgrass, Large plant response rating: 100
foxtail, giant [3]; [22]
  Foxtail, Giant plant response rating: 90
foxtail, giant [3]; [19]
  Foxtail, Giant plant response rating: 100
Morningglory [4]; [22]
  Morningglory plant response rating: 10
Morningglory [4]; [19]
  Morningglory plant response rating: 50
Pigweed [5]; [22]
  Pigweed plant response rating: 90
Pigweed [5]; [19]
  Pigweed plant response rating: 90
Velvetleaf [6]; [22]
  Velvetleaf plant response rating: 0
Velvetleaf [6]; [19]
  Velvetleaf plant response rating: 100
Wheat [7]; [22]
  Wheat plant response rating: 0
Wheat [7]; [19]
  Wheat plant response rating: 40
Corn [8]; [22]
  Corn plant response rating: 10
Corn [8]; [19]
  Corn plant response rating: 60
Barnyardgrass [9]; [23]
  Barnyardgrass plant response rating: 60
Barnyardgrass [9]; [24]
  Barnyardgrass plant response rating: 20
crabgrass, large [10]; [23]
  Crabgrass, Large plant response rating: 80
crabgrass, large [10]; [24]
  Crabgrass, Large plant response rating: 50
foxtail, giant [11]; [23]
  Foxtail, Giant plant response rating: 90
foxtail, giant [11]; [24]
  Foxtail, Giant plant response rating: 50
Morningglory [12]; [23]
  Morningglory plant response rating: 60
Morningglory [12]; [24]
  Morningglory plant response rating: 40
Pigweed [13]; [23]
  Pigweed plant response rating: 80
Pigweed [13]; [24]
  Pigweed plant response rating: 50
Velvetleaf [14]; [23]
  Velvetleaf plant response rating: 50
Velvetleaf [14]; [24]
  Velvetleaf plant response rating: 10
Wheat [15]; [23]
  Wheat plant response rating: 30
Wheat [15]; [24]
  Wheat plant response rating: 0
Corn [16]; [23]
  Corn plant response rating: 50
Corn [16]; [24]
  Corn plant response rating: 30
rice
  Plant response rating, Rice: 0
sedge, umbrella
  Plant response rating, Sedge, Umbrella: 50
ducksalad
  Plant response rating, Ducksalad: 50
Barnyardgrass [17]
  Plant response rating, Barnyardgrass: 0
